In US8278309B2, “Synthetic mimetics of host defense and uses thereof” (priority 2008, dated 2012):
Converted amounts (≈) assume the structure as drawn. Like-named read-outs stand apart in the source and are kept apart here.

Assays:
Klebsiella oxytoca = experiment: MIC broth microdilution, Gram-negative clinical isolates; type: cell-based
Protocol: (§1) Compound A was evaluated in vitro in accordance with defined CLSI documents specific to the organisms (aerobic, anaerobic or yeast) tested in this study. Ampicillin, ceftazidime, cefuroxime, ciprofloxacin, linezolid, and vancomycin were tested alongside as comparator agents for aerobic bacteria; clindamycin and metronidazole were tested as comparators for anaerobes; fluconazole was tested as a comparator for yeast isolates. Stock solutions of Compound A were prepared in dimethyl sulfoxide (DMSO). Ampicillin, ceftazidime, cefuroxime, ciprofloxacin, linezolid, vancomycin, metronidazole, clindamycin, and fluconazole were prepared each according to its manufacturer's guideline.
(§2) Minimum inhibitory concentrations (MICs) in μg/ml were determined according to CLSI guideline M7-A7 by broth microdilution. All aerobes were tested using Mueller-Hinton broth medium with the exception of Streptococcus spp., which were tested using cation-adjusted Mueller-Hinton broth supplemented with 2-5% lysed horse blood.

Proteus vulgarisi = experiment: as above; type: cell-based
Protocol: as §1, §2

Staph. spidermidis = experiment: MIC broth microdilution, Gram-positive clinical isolates; type: cell-based
Protocol: as §1, §2

Serratia marcescens = experiment: MIC broth microdilution, Gram-negative clinical isolates; type: cell-based
Protocol: as §1, §2

Providencia stuartii = experiment: as above; type: cell-based
Protocol: as §1, §2

Morganella morganii = experiment: as above; type: cell-based
Protocol: as §1, §2

Citrobacter freundi = experiment: as above; type: cell-based
Protocol: as §1, §2

Klebsiella pneumoniae = experiment: as above; type: cell-based
Protocol: as §1, §2

[1] = test system: Stenotrophomonas maltophilia; experiment: as above; type: cell-based
Protocol: as §1, §2

Enterobacter cloacae = experiment: as above; type: cell-based
Protocol: as §1, §2

Proteus mirabilis = experiment: as above; type: cell-based
Protocol: as §1, §2

Haemophilus influenzae = experiment: as above; type: cell-based
Protocol: as §1, §2

Acinetobacter spp. = experiment: as above; type: cell-based; details: 2-3 isolates/organism
Protocol: as §1, §2

Pseudomonas aeruginosa = experiment: as above; type: cell-based; details: 2-3 isolates/organism
Protocol: as §1, §2

Citrobacter koseri = experiment: as above; type: cell-based
Protocol: as §1, §2

Escherichia coli = experiment: as above; type: cell-based
Protocol: as §1, §2

Strept. viridians = experiment: MIC broth microdilution, Gram-positive clinical isolates; type: cell-based
Protocol: as §1, §2

Strept. pyogenes = experiment: as above; type: cell-based; details: Streptococcus pyogenes
Protocol: as §1, §2

Staph. aureus (MRSA) = experiment: as above; type: cell-based; details: Staphylococcus aureus
Protocol: as §1, §2

Staph. spp. (coagulase−) = experiment: as above; type: cell-based
Protocol: as §1, §2

Entero. faecalis = experiment: as above; type: cell-based; details: Enterococcus faecalis
Protocol: as §1, §2

Strept. agalactiae = experiment: as above; type: cell-based; details: Streptococcus agalactiae
Protocol: as §1, §2

Entero. faecium (VRE) = experiment: as above; type: cell-based; details: Enterococcus faecium
Protocol: as §1, §2

Strept. pneumoniae = experiment: as above; type: cell-based; details: Streptococcus pneumoniae
Protocol: as §1, §2

S. aureus = experiment: MIC or MIC90 vs S. aureus (selectivity table); type: cell-based; details: * marks MIC90
MSSA ATCC 29213 = experiment: Serial passage resistance, MSSA; type: cell-based, S. aureus; details: serial passage at 0.5×MIC
Protocol: (§3) Frozen bacterial stocks (20 μL) of S. aureus ATCC29213 or methicillin-resistant S. aureus (MRSA ATCC 33591) were inoculated into 3 mL cation-adjusted Mueller-Hinton medium and incubated at 37° C. on a shaker platform (250 rpm) overnight. The suspension was diluted to approximately 5×10^5 cfu/mL and inoculated into a polypropylene (Costar) 96-well round bottom plate (90 μL volumes). Compound stock solutions of Compound A and norfloxacin (Sigma Aldrich, St. Louis, Mo.; Catalogue# N9890) were prepared in DMSO and serial two-fold dilutions of compound were made in 0.01% acetic acid, 0.2% bovine serum albumin directly in the wells of the polypropylene plate at 10 μL/well. Final concentrations of Compound A were 50, 25, 12.5, 6.25, 3.13, 1.56, 0.78, 0.39, 0.19, 0.098, 0.049, and 0.024 μg/mL. Final concentration ranges of norfloxacin were 100, 50, 25, 12.5, 6.25, 3.13, 1.56, 0.78, 0.39, 0.19, 0.098, and 0.049 μg/mL. […] All samples were performed in triplicate. Following a 24 hour incubation at 37° C., cell growth was assessed by observing the presence of “acceptable growth”, defined by CLSI as a ≧2 mm button or definite turbidity. The MIC wells were defined as the lowest concentration where acceptable growth was not observed. For serial passage, 50 μL aliquots were taken from 2 of 3 replicate wells at 0.5×MIC and combined into 900 μL of fresh cation-adjusted Mueller-Hinton medium. The OD600 was measured and the cell suspensions were inoculated into polypropylene 96-well round bottom plates (90 μL volumes) at approximately 5×10^5 cfu/mL. Ten μL of compound stock solutions were added previously to the wells to achieve the concentration ranges for each compound described above. All samples were performed in triplicate. The plates were incubated for 24 hours at 37° C. This process was repeated for a total of 17 passages and MIC values were recorded at each passage.

MRSA ATCC 33591 = experiment: Serial passage resistance, MRSA; type: cell-based, S. aureus; details: serial passage at 0.5×MIC
Protocol: as §3

Staph. saprophyticus = experiment: MIC broth microdilution, Gram-positive clinical isolates; type: cell-based; details: Staphylococcus saprophyticus
Protocol: as §1, §2

[2] = 2-3 isolates/organism, read-out: MIC
[3] = Proteus vulgarisi, 2-3 isolates/organism, read-out: MIC
[4] = Staph. spidermidis, 2-3 isolates/organism, read-out: MIC

Compound `CC(=O)NC[C@H]1CN(c2ccc(N3CCOCC3)c(F)c2)C(=O)O1` [Linezolid] has an MIC (Klebsiella oxytoca; [2]) greater than 16 µg/mL, an MIC (Proteus vulgarisi; [3]) greater than 16 µg/mL and an MIC (Staph. spidermidis; [4]) of 0.5 to 1 µg/mL (≈ 1.48 to 2.96 µM).

For `CC(C)(O/N=C(\C(=O)N[C@@H]1C(=O)N2C(C(=O)[O-])=C(C[n+]3ccccc3)CS[C@H]12)c1csc(N)n1)C(=O)O` [Ceftazidime], the MIC (Serratia marcescens; [2]) was 0.12 to 0.25 µg/mL (≈ 0.22 to 0.457 µM), the MIC (Providencia stuartii; [2]) was 0.12 to 0.64 µg/mL (≈ 0.22 to 1.17 µM) and the MIC (Morganella morganii; [2]) was 2 to 16 µg/mL (≈ 3.66 to 29.3 µM). It also gave an MIC (Klebsiella oxytoca; [2]) of 0.06 to 0.12 µg/mL (≈ 0.11 to 0.22 µM), an MIC (Citrobacter freundi; Citrobacter freundi, 2-3 isolates/organism, read-out: MIC) of 0.25 to 2 µg/mL (≈ 0.457 to 3.66 µM) and an MIC (Klebsiella pneumoniae; [2]) of 0.06 to 0.12 µg/mL (≈ 0.11 to 0.22 µM). The MIC [1, 2] was 4 to 8 µg/mL (≈ 7.32 to 14.6 µM), the MIC (Enterobacter cloacae; [2]) was 0.25 µg/mL (≈ 0.457 µM) and the MIC (Proteus mirabilis; [2]) was 0.03 to 0.06 µg/mL (≈ 0.0549 to 0.11 µM). It also gave an MIC (Haemophilus influenzae; [2]) of 0.06 to 0.12 µg/mL (≈ 0.11 to 0.22 µM), an MIC (Proteus vulgarisi; [3]) of 0.12 µg/mL (≈ 0.22 µM) and an MIC (Acinetobacter spp.) of 2 to 64 µg/mL (≈ 3.66 to 117 µM). It also gave an MIC (Pseudomonas aeruginosa) of 1 to 8 µg/mL (≈ 1.83 to 14.6 µM), an MIC (Citrobacter koseri; [2]) of 0.12 to 0.25 µg/mL (≈ 0.22 to 0.457 µM) and an MIC (Escherichia coli; [2]) of 0.06 µg/mL (≈ 0.11 µM). It also gave an MIC (Strept. viridians; Strept. viridians, 2-3 isolates/organism, read-out: MIC) of 0.5 to 4 µg/mL (≈ 0.915 to 7.32 µM), an MIC (Strept. pyogenes; Strept. pyogenes, 2-3 isolates/organism, read-out: MIC) of 0.12 µg/mL (≈ 0.22 µM) and an MIC (Staph. aureus (MRSA); Staph. aureus (MRSA), 2-3 isolates/organism, read-out: MIC) of 32 µg/mL (≈ 58.5 µM). The MIC (Staph. spp. (coagulase−); Staph. spp. (coagulase−), 2-3 isolates/organism, read-out: MIC) was 16 to 32 µg/mL (≈ 29.3 to 58.5 µM), the MIC (Entero. faecalis; Entero. faecalis, 2-3 isolates/organism, read-out: MIC) was greater than 64 µg/mL and the MIC (Staph. spidermidis; [4]) was 16 to 32 µg/mL (≈ 29.3 to 58.5 µM). For the same compound, the MIC (Strept. agalactiae; Strept. agalactiae, 2-3 isolates/organism, read-out: MIC) was 0.5 µg/mL (≈ 0.915 µM), the MIC (Entero. faecium (VRE); Entero. faecium (VRE), 2-3 isolates/organism, read-out: MIC) was greater than 64 µg/mL and the MIC (Strept. pneumoniae; Strept. pneumoniae, 2-3 isolates/organism, read-out: MIC) was 0.25 µg/mL (≈ 0.457 µM).

In the case of `CC[C@H](C)[C@H](NC(=O)CN)C(=O)NCC(=O)N[C@@H](C)C(=O)N[C@H](C(=O)N[C@@H](CC(C)C)C(=O)N[C@@H](CCCCN)C(=O)N[C@H](C(=O)N[C@@H](CC(C)C)C(=O)N[C@H](C(=O)N[C@H](C(=O)NCC(=O)N[C@@H](CC(C)C)C(=O)N1CCC[C@H]1C(=O)N[C@@H](C)C(=O)N[C@@H](CC(C)C)C(=O)N[C@H](C(=O)N[C@@H](CO)C(=O)N[C@@H](Cc1c[nH]c2ccccc12)C(=O)N[C@H](C(=O)N[C@@H](CCCCN)C(=O)N[C@@H](CCCNC(=N)N)C(=O)N[C@@H](CCCCN)C(=O)N[C@@H](CCCNC(=N)N)C(=O)N[C@@H](CCC(N)=O)C(=O)N[C@@H](CCC(N)=O)C(N)=O)[C@@H](C)CC)[C@@H](C)CC)[C@@H](C)O)[C@@H](C)O)C(C)C)C(C)C` [melittin, reference compound], the “MIC or MIC90* S. aureus” value (S. aureus) was 2 µg/mL (≈ 0.703 µM).

`CCn1cc(C(=O)O)c(=O)c2cc(F)c(N3CCNCC3)cc21` [norfloxacin, reference compound] was tested, and the “increase in MIC by passage 15” value (MSSA ATCC 29213) was 128 fold, the “rise in MIC values by passage 3” value (MSSA ATCC 29213) was 4 doubling dilutions and the “increase in MIC by passage 15” value (MRSA ATCC 33591) was 64 fold. The “rise in MIC values by passage 3” value (MRSA ATCC 33591) was 4 doubling dilutions.

In the case of `CN[C@H](CC(C)C)C(=O)N[C@H]1C(=O)N[C@@H](CC(N)=O)C(=O)N[C@H]2C(=O)N[C@H]3C(=O)N[C@H](C(=O)N[C@H](C(=O)O)c4cc(O)cc(O)c4-c4cc3ccc4O)[C@H](O)c3ccc(c(Cl)c3)Oc3cc2cc(c3O[C@@H]2O[C@H](CO)[C@@H](O)[C@H](O)[C@H]2O[C@H]2C[C@](C)(N)[C@H](O)[C@H](C)O2)Oc2ccc(cc2Cl)[C@H]1O` [Vancomycin], the MIC (Serratia marcescens) was greater than 128 µg/mL, the MIC (Providencia stuartii) was greater than 128 µg/mL and the MIC (Morganella morganii) was greater than 128 µg/mL. For the same compound, the MIC (Klebsiella oxytoca) was greater than 128 µg/mL, the MIC (Citrobacter freundi; Citrobacter) was greater than 128 µg/mL and the MIC (Klebsiella pneumoniae) was greater than 128 µg/mL. For the same compound, the MIC [1] was 32 to 128 µg/mL (≈ 22.1 to 88.3 µM), the MIC (Enterobacter cloacae) was greater than 128 µg/mL and the MIC (Proteus mirabilis) was greater than 128 µg/mL. For the same compound, the MIC (Haemophilus influenzae) was 128 µg/mL (≈ 88.3 µM), the MIC (Proteus vulgarisi) was greater than 128 µg/mL and the MIC (Citrobacter koseri) was greater than 128 µg/mL. It also gave an MIC (Escherichia coli) greater than 128 µg/mL, an MIC (Strept. viridians) of 0.5 to 1 µg/mL (≈ 0.345 to 0.69 µM) and an MIC (Strept. pyogenes) of 0.5 µg/mL (≈ 0.345 µM). For the same compound, the MIC (Staph. aureus (MRSA); MRSA) was 0.5 to 1 µg/mL (≈ 0.345 to 0.69 µM), the MIC (Staph. spp. (coagulase−)) was 1 to 2 µg/mL (≈ 0.69 to 1.38 µM) and the MIC (Staph. saprophyticus) was 1 to 2 µg/mL (≈ 0.69 to 1.38 µM). For the same compound, the MIC (Entero. faecalis) was 1 µg/mL (≈ 0.69 µM), the MIC (Staph. spidermidis) was 2 µg/mL (≈ 1.38 µM) and the MIC (Strept. agalactiae) was 0.5 µg/mL (≈ 0.345 µM). It also gave an MIC (Entero. faecium (VRE); VRE) greater than 128 µg/mL and an MIC (Strept. pneumoniae) of 0.5 µg/mL (≈ 0.345 µM).
